Test results from ChEMBL document CHEMBL1131884, “Dicationic 2-fluorenonylcarbapenems: potent anti-MRS agents with improved solubility and pharmacokinetic properties” (Bioorg Med Chem Lett, 1999).
Values after ≈ are worked out from the molar mass of the structure shown.

What was measured:
Mus musculus [1] = test: In vivo antibacterial activity against MSSA MB 2985 strain at the dose ~4 *10e7 cfu in brain heart broth along with antibiotic by administration at 0 hour in mice; type: functional
Staphylococcus sp. = test: Antibacterial activity against methicillin-resistant coagulase negative Staphylococci (MRCNS); type: functional
Streptococcus pyogenes [2] = test: Antibacterial activity against Streptococcus pyogenes; type: functional
Enterococcus faecium = test: Antibacterial activity against vancomycin-resistant Enterococcal faecium strain; type: functional
Enterococcus faecalis [3] = test: Antibacterial activity against vancomycin-resistant Enterococcus faecalis strain; type: functional
Staphylococcus aureus [4] = test: Antibacterial activity against MSSA (Methicillin-sensitive Staphylococcus aureus); type: functional
Streptococcus pneumoniae = test: Antibacterial activity against penicillin-resistant Streptococcus pneumoniae; type: functional
Mus musculus [5] = test: In vivo antibacterial activity against MRSA 76 virginia strain at the dose ~1 *10e7 cfu in 5 percent hog gastric mucin along with antibiotic by sc administration at 0 and +4 hrs in mice; type: functional
[6] = target: T1, Dipeptidase 1 (Sus scrofa) (UniProt P22412); test: Susceptibility to mammalian dehydropeptidas, DHP-1(Porcine)
T1 sequence (whole entry): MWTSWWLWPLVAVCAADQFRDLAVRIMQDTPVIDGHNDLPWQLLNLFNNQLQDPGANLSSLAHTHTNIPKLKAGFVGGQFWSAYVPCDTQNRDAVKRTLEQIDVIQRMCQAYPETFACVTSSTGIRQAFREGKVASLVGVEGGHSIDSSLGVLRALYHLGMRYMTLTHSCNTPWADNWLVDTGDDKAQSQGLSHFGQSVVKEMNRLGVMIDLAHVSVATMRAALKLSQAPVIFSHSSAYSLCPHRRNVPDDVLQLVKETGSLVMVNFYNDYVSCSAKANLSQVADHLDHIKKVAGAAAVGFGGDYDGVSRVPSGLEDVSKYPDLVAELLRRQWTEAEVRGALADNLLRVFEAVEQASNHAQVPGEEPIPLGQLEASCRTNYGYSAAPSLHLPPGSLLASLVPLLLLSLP

Staphylococcus aureus [7] = test: Antibacterial activity against methicillin-resistant Staphylococcus aureus (MRSA); type: functional
Bacteria = test: Antibacterial activity against Gram negative bacteria; type: functional
Enterococcus faecalis [8] = test: Antibacterial activity against Enterococcus faecalis; type: functional
Mus musculus [9] = test: In vivo antibacterial activity against MSSA MB 2985 strain at the dose ~4 *10e7 cfu in brain heart broth along with antibiotic by sc administration at 0 hour in mice; type: functional
[10] = Plasma clearance evaluated in Rhesus monkeys at the dose of 10 mg/kg by iv bolus injection; type: ADME, organism-based; parameters: dose 10 mg/kg, route intravenous; conditions: cercopithecidae
[11] = Renal clearance evaluated in Rhesus monkeys at the dose of 10 mg/kg by iv bolus injection; type: ADME, organism-based, Kidney; parameters: dose 10 mg/kg, route intravenous; conditions: cercopithecidae, in vivo, read-out: Renal clearance
[12] = Glomerular Filtration Rate(GFR) evaluated in Rhesus monkeys at the dose of 10 mg/kg by iv bolus injection; type: ADME, organism-based; parameters: dose 10 mg/kg, route intravenous; conditions: cercopithecidae, in vivo
[13] = Half life evaluated in Rhesus monkeys at the dose of 10 mg/kg by iv bolus injection; type: ADME, organism-based; parameters: dose 10 mg/kg, route intravenous; conditions: cercopithecidae, in vivo, read-out: Beta t1/2 (converted)
MecA = target: T2, MecA (Staphylococcus aureus, UniProt Q7DHH4); test: Binding affinity against PBP2a receptor by competition analysis with [3H]benzylpenicillin using cell membrane fractions from the MRSA COL strain.
T2 sequence (Q7DHH4 whole entry): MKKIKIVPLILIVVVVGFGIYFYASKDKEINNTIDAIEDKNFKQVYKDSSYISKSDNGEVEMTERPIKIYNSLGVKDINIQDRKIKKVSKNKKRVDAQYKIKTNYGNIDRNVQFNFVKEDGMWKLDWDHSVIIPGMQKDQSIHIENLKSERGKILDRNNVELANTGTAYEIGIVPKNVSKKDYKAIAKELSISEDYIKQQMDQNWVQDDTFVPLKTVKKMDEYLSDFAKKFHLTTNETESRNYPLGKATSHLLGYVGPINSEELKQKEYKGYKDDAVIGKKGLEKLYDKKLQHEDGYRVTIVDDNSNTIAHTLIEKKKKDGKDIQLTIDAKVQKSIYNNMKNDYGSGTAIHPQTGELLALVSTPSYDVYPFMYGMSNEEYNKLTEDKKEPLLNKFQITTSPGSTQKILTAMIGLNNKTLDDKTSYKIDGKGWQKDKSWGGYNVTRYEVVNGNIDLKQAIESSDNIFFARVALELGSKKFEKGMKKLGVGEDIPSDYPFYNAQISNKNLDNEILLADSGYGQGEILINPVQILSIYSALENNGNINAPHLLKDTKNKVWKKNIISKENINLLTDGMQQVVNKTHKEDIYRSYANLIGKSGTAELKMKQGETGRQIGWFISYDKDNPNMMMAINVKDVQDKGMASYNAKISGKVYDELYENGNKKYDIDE

[14] = AUC (area under curve) evaluated in Rhesus monkeys at the dose of 10 mg/kg by iv bolus injection; type: ADME, organism-based, Plasma; parameters: dose 10 mg/kg, route intravenous; conditions: cercopithecidae
[15] = AUC (area under curve) compared to Cilastatin evaluated in Rhesus monkeys at the dose of 10 mg/kg by iv bolus injection; type: ADME, organism-based; parameters: dose 10 mg/kg, route intravenous; conditions: cercopithecidae, plasma
[16] = Glomerular Filtration Rate(GFR)of the compound compared to Cilastatin evaluated in Rhesus monkeys at the dose of 10 mg/kg by iv bolus injection; type: ADME, organism-based; parameters: dose 10 mg/kg, route intravenous; conditions: cercopithecidae, in vivo
[17] = Half life compared to Cilastatin evaluated in Rhesus monkeys at the dose of 10 mg/kg by iv bolus injection; type: ADME, organism-based; parameters: dose 10 mg/kg, route intravenous; conditions: cercopithecidae, in vivo, read-out: Beta t1/2 (converted)
[18] = Plasma clearance compared to Cilastatin evaluated in Rhesus monkeys at the dose of 10 mg/kg by iv bolus injection; type: ADME, organism-based; parameters: dose 10 mg/kg, route intravenous; conditions: cercopithecidae
[19] = Renal clearance compared to Cilastatin evaluated in Rhesus monkeys at the dose of 10 mg/kg by iv bolus injection; type: ADME, organism-based, Kidney; parameters: dose 10 mg/kg, route intravenous; conditions: cercopithecidae, in vivo, read-out: Renal clearance
[20] = Urinary recovery compared to Cilastatin evaluated in Rhesus monkeys at the dose of 10 mg/kg by iv bolus injection; type: ADME, organism-based, Urine; parameters: dose 10 mg/kg, route intravenous; conditions: cercopithecidae, in vivo
Streptococcus pyogenes [21] = test: Antibacterial activity against Streptococcus pyogenes
[22] = target: T1, Dipeptidase 1 (Sus scrofa); test: Susceptibility to mammalian dehydropeptidase, DHP-1(Porcine)

Row | Compound | MIC (Mus musculus [1]) | MIC50 (Staphylococcus sp.) | MIC90 (Staphylococcus sp.) | MIC (Streptococcus pyogenes [2]) | MIC (Enterococcus faecium) | MIC (Enterococcus faecalis [3]) | MIC (Staphylococcus aureus [4]) | MIC (Streptococcus pneumoniae) | ED50 (Mus musculus [5]) | MIC (Mus musculus [5]) | Rate of hydrolysis [6] | MIC50 (Staphylococcus aureus [7]) | MIC90 (Staphylococcus aureus [7]) | MIC (Bacteria) | MIC (Enterococcus faecalis [8]) | ED50 (Mus musculus [9]) | clearance [10] | CL renal [11] | GFR [12] | IC50 (MecA) | further results
1 | C[C@@H](O)[C@H]1C(=O)N2C(C(=O)O)=C(SCCNC=N)C[C@H]12 [IMIPENEM ANHYDROUS] | 0.008 µg/mL (≈ 0.0267 µM) | 128 µg/mL (≈ 428 µM) | 256 µg/mL (≈ 855 µM) | < 0.031 µg/mL | > 64 µg/mL | 8 µg/mL (≈ 26.7 µM) | 0.03 µg/mL (≈ 0.1 µM) | 0.35 µg/mL (≈ 1.17 µM) | 15.7 mg kg-1 dose-1 | 64 µg/mL (≈ 214 µM) | 1 | 64 µg/mL (≈ 214 µM) | 128 µg/mL (≈ 428 µM) | 0.45 µg/mL (≈ 1.5 µM) | 2 µg/mL (≈ 6.68 µM) | 0.021 mg/kg |  |  |  |  | 
2 | C[C@@H](O)[C@H]1C(=O)N2C(C(=O)[O-])=C(c3ccc4c(c3)-c3ccc(C[N+]56CC[N+](CC(N)=O)(CC5)CC6)cc3C4=O)[C@H](C)[C@H]12.[Cl-] | 0.031 µg/mL | 4 µg/mL | 8 µg/mL | < 0.031 µg/mL | 8 µg/mL | 8 µg/mL | 0.03 µg/mL | 0.24 µg/mL | 1 mg kg-1 dose-1 | 2 µg/mL | 0.021 | 4 µg/mL | 4 µg/mL | 3.6 µg/mL | 0.5 µg/mL | 0.021 mg/kg | 2.95 mL/min/kg | 2.72 mL/min/kg | 3.48 mL/min/kg | 1320 nM | half-life [13]: 1.35 h; AUC ([14]; plasma, read-out: AUC): 56400 ng·h/mL
3 | C[C@@H](O)[C@H]1C(=O)N2C(C(=O)O)=C(SCCN=CN)C[C@H]12 [IMIPENEM ANHYDROUS] |  |  |  |  |  |  |  |  |  |  |  |  |  |  |  |  |  |  |  | 334000 nM | AUC [15]: 24800 ng·h/mL; GFR [16]: 2.98 mL/min/kg; half-life [17]: 0.6 h; clearance [18]: 6.72 mL/min/kg; CL renal [19]: 5.44 mL/min/kg; Urinary recovery [20]: 82
4 | C[C@@H](O)[C@H]1C(=O)N2C(C(=O)[O-])=C(c3ccc4c(c3)-c3ccc(C[N+]56CC[N+](CC(N)=O)(CC5)CC6)cc3C4=O)C[C@H]12.[Cl-] | 0.004 µg/mL | 2 µg/mL | 2 µg/mL |  | 16 µg/mL | 2 µg/mL | 0.03 µg/mL | 0.09 µg/mL | 0.5 mg kg-1 dose-1 | 1 µg/mL |  | 1 µg/mL | 4 µg/mL | 1.05 µg/mL | 0.125 µg/mL | 0.042 mg/kg | 4.74 mL/min/kg | 1.88 mL/min/kg | 2.96 mL/min/kg | 573 nM | MIC (Streptococcus pyogenes [21]): < 0.031 µg/mL; Rate of hydrolysis [22]: 0.055; half-life [13]: 0.91 h; AUC ([14]; in vivo): 35.14 µg/mL
5 | C[C@@H](O)[C@H]1C(=O)N2C(C(=O)[O-])=C(c3ccc4c(c3)-c3ccc(C[n+]5ccn(C)c5)cc3C4=O)C[C@H]12 | 0.008 µg/mL (≈ 0.017 µM) | 2 µg/mL (≈ 4.26 µM) | 4 µg/mL (≈ 8.52 µM) | < 0.031 µg/mL | 4 µg/mL (≈ 8.52 µM) | 1 µg/mL (≈ 2.13 µM) | 0.03 µg/mL (≈ 0.0639 µM) | < 0.03 µg/mL | 0.92 mg kg-1 dose-1 | 1 µg/mL (≈ 2.13 µM) | 0.078 | 1 µg/mL (≈ 2.13 µM) | 2 µg/mL (≈ 4.26 µM) | 1.37 µg/mL (≈ 2.92 µM) | 0.125 µg/mL (≈ 0.266 µM) | 0.034 mg/kg | 5.56 mL/min/kg | 2.34 mL/min/kg | 3.19 mL/min/kg | 1060 nM | half-life [13]: 1.17 h; AUC ([14]; plasma, read-out: AUC): 30400 ng·h/mL
